# In patent publication US20210236494A1, “THERAPEUTIC COMBINATION” (Oncologica UK Ltd., priority 2018, published 2021):
# Tests used:
# [1] = system: HBEpC bronchial epithelial primary cells; experiment: Western blotting of whole cell extracts; format: cell-based, human
# Procedure: (§1) In addition, whole cell extracts (WCE) were prepared by cell lysis in modified RIPA buffer (50 mmol/L Tris-Cl pH 7.4, 300 mmol/L NaCl, 0.1% NP40, 1% Triton X-100, 0.5% sodium deoxycholate, 0.1% SDS, 5 mmol/L EDTA, 1 mmol/L EGTA, 100 mmol/L sodium fluoride and 1 mmol/L sodium orthovanadate) followed by sonication for 10 seconds. These were analysed by Western Blotting, in which fifty micrograms of protein was loaded in each lane, separated by 4-20% SDS-PAGE, and transferred by semidry electroblotting onto Hybond C Extra nitrocellulose membranes (GE Healthcare, Buckinghamshire, UK).
# (§2) Primary antibodies used were: caspase 3 (NB500-210, Novus Biologicals); caspase 9 (sc-17784, Santa Cruz Biotechnology); Cdc7 (K0070-3, MBL International); cyclin A (sc-596, Santa Cruz Biotechnology); cyclin E (MS-870-P, NeoMarkers); Mcm2 pS53 (A300-756A, Bethyl Laboratories); PCNA (610665, BD Biosciences); Rb (554136, BD Biosciences); Rb pS807/811 (9308, Cell Signaling Technologies); TBP (A301-229A, Bethyl Laboratories).
# (§3) Blocking, antibody incubations (using various antibodies including anti-Cdc7 or anti-Mcm2 pS53 antibodies), and washing steps were performed.
# (§4) Cells were harvested and apoptosis was monitored by phase contrast microscopy, flow cytometry and western blot detection of pro-caspase 3 and 9 cleavage.
# [2] = system: IMR90 mesenchymal diploid fibroblasts; experiment: Western blotting of whole cell extracts; format: cell-based, human
# Procedure: as §1, §2, §3, §4
# [3] = system: IMR90 cells; experiment: Apoptosis monitored by phase contrast microscopy; format: cell-based, human; conditions: siRNA (CDC7 or control) 48 hours prior to 500 nM paclitaxel for 24 hours
# Procedure: (§5) To test this hypothesis, HBEpC bronchial epithelial cells and IMR90 mesenchymal fibroblasts were transfected with CDC7-siRNA or control-siRNA 48 hours prior to treatment with 500 nM paclitaxel or DMSO and then cultured for a further 24 hours. Cells were harvested and apoptosis was monitored by phase contrast microscopy, flow cytometry and western blot detection of pro-caspase 3 and 9 cleavage.
# [4] = system: HBEpC cells; experiment: Apoptosis monitored by phase contrast microscopy; format: cell-based, human; conditions: siRNA (CDC7 or control) 48 hours prior to 500 nM paclitaxel for 24 hours
# Procedure: as §5
# [5] = system: IMR90 cells; experiment: Flow cytometry of DNA content (cell cycle, sub G1); format: cell-based, human
# Procedure: (§6) After 24 hours medium was removed and cells were retransfected with control (20 nmol/L), CDC7 (10 nmol/L) plus control (10 nmol/L), or CDC7 (10 nmol/L) plus p53 (9 nmol/L duplex plus 1 nmol/L SMARTpool) siRNA mixtures. Cells were harvested at the indicated time points after the second transfection. Efficient knockdown was assessed by qRT-PCR and/or Western blot.
# as §5
# [6] = system: HBEpC cells; experiment: Flow cytometry of DNA content (cell cycle, sub G1); format: cell-based, human
# Procedure: as §6, §5
# [7] = system: IMR90 cells; experiment: Cell population growth by phase contrast microscopy; format: cell-based, human; conditions: IMR90, 144 hour time course; plateau 48 to 120 hours post-transfection
# Procedure: (§7) Phase contrast microscopy was performed over a period of 144 hours with an inverted Aziover 200m (Carl Zeiss, Welwyn Garden City, Uk) and Axiovision software to assess cell population growth.
# [8] = system: HBEpC cells; experiment: as above; format: cell-based, human; conditions: 144 hour time course, plateau 48 to 120 hours post-transfection
# Procedure: as §7
# [9] = system: CDC7 mRNA in HBEpC cells; experiment: qRT-PCR of CDC7 mRNA after CDC7-siRNA transfection; format: cell-based, human; conditions: 72 hours post-transfection, 25 nM siRNA
# From the text: (§8) Cells were then transfected with CDC7-siRNA to inhibit CDC7 expression. Specifically, CDC7 expression was inhibited with custom double-stranded RNA oligos (5′-[…]-3′ (SEQ ID NO 1) and 5′-[…]-3′ (SEQ ID NO 2) Thermo Scientific), using previously described methods (Tudzarove S. et al 2010 supra.). Non-targeting siRNA was used as a negative control (12935-300, Invitrogen). CDC7 or control siRNA duplexes were transfected using Lipofectamine 2000 (11668019, Invitrogen) according to the manufacturer's recommendations at an optimized concentrations of 10 nM for IMR90 and 25 nM for HBEpC.
# (§9) At 72 hours post-transfection, CDC7 mRNA levels were measured using qPCR in order to evaluate the efficiency of transfection with CDC7. In particular, Total RNA was isolated from cells with the PureLink Microto-Midi Total RNA Purification System (Invitrogen) according to the manufacturer's instructions. Total RNA (40 ng) was reverse transcribed, and real-time PCR was performed using a SuperScript III Platinum SYBR Green OneStep qRTPCR kit (Invitrogen) following the manufacturer's instructions. Reactions were carried out in an Eppendorf Mastercycler ep Realplex Real-Time PCR System (Eppendorf, Cambridge, UK), and results were analyzed with Realplex v1.5 software (Eppendorf). […]
# [10] = system: CDC7 mRNA in IMR90 cells; experiment: qRT-PCR of CDC7 mRNA after CDC7-siRNA transfection; format: cell-based, human; conditions: IMR90, 72 hours post-transfection, 10 nM siRNA
# From the text: as §8, §9
# [11] = system: SKOV-3, Saos-2, BT-549 and NCI-H322M cells; experiment: Apoptosis by morphology and western blot of pro-caspase 3 and 9 cleavage in cancer cells; format: cell-based; conditions: 96 hours post-transfection; cancer cells lacking functional p53
# Procedure: On this basis, RNAi was then used to investigate the effects of Cdc7 loss in epithelial and mesenchymal cancer cell lines deficient in functional p53. In this experiment, SKOV-3 ovarian carcinoma cells (HTB-77, ATCC) and Saos-2 osteosarcoma cells (HTB-85, ATCC) in McCoy's 5A medium (26600, Invitrogen) supplemented with 15% FBS, BT-549 mammary ductal carcinoma cells (HTB-122, ATCC) in RPMI-1640 medium (52400, Invitrogen) supplemented with 10% FBS and 10 μg/ml insulin (10516, Sigma); and NCI-H322M bronchioalveolar carcinoma cells (95111734, ECACC) in RPMI-1640 medium were used.
# Cells were transfected with siRNA as described in Example 1 and the effects on mRNA expression, western blotting and cell population growth were assessed also as described in Example 1.
# [12] = siRNA (CDC7 or control) 48 hours prior to 500 nM paclitaxel for 24 hours
# [13] = IMR90, siRNA (CDC7 or control) 48 hours prior to 500 nM paclitaxel for 24 hours
# [14] = IMR90, 72 hours post-transfection
compound,measurement,setting,value
CC(=O)O[C@H]1C(=O)[C@@]2(C)[C@H]([C@H](OC(=O)c3ccccc3)[C@]3(O)C[C@H](OC(=O)[C@H](O)[C@@H](NC(=O)c4ccccc4)c4ccccc4)C(C)=C1C3(C)C)[C@]1(OC(C)=O)CO[C@@H]1C[C@@H]2O [paclitaxel],pro-caspase 3 and 9 levels,[1]; [12],marked reduction
same,pro-caspase 3 and 9 levels,[2]; [13],marked reduction
same,cell morphology (apoptosis),[3],morphological signs of apoptosis
same,cell morphology (apoptosis),[4],morphological signs of apoptosis
same,percentage of cells with less than 2C (sub G1) DNA content,[5]; [13],35%
same,percentage of cells with less than 2C (sub G1) DNA content,[6]; [12],30%
"CDC7-siRNA: custom double-stranded RNA oligos (5′-GCUCAGCAGGAAAGGUGUUUU-3′ SEQ ID NO 1 and 5′-AACACCUUUCCUGCUGAGCUU-3′ SEQ ID NO 2) inhibiting CDC7 expression (RNA, backbone not given here)",cell proliferation (cell numbers),[7],cessation of cell proliferation
same,cell proliferation (cell numbers),[8],cessation of cell proliferation
same,CDC7 mRNA levels reduced relative to control siRNA transfected (CO) cells,[9],89%
same,CDC7 mRNA levels reduced relative to control siRNA transfected (CO) cells,[10],87%
same,"apoptosis (morphology, cleavage of pro-caspases 3 and 9 in WCE)",[11],Induction of apoptosis
same,CDC7 protein levels,[1]; 72 hours post-transfection,undetectable
same,Mcm2 phosphorylation at Ser-53,[1]; 72 hours post-transfection,abolished
same,CDC7 protein levels,[2]; [14],undetectable
same,Mcm2 phosphorylation at Ser-53,[2]; [14],abolished
same,cell cycle distribution,[5]; [14],accumulation consistent with a G1 arrest
same,cells with less than 2C (sub G1) DNA content,"[5]; IMR90, Cdc7-depleted alone",not detected
same,cell cycle distribution,[6]; 72 hours post-transfection,accumulation consistent with a G1 arrest
same,cells with less than 2C (sub G1) DNA content,[6]; Cdc7-depleted alone,not detected
